Results published in patent publication US6150385A, “1,3,4-thiadiazoles useful for the treatment of CMV infections” (Pharmacia & Upjohn Company, priority 1999, dated 2000).

Target: T1, HCMV polymerase (Human cytomegalovirus, UniProt P08546)
T1 construct: made in house; host or cells: SF-9 insect cells infected with recombinant baculovirus
Assay: HCMV polymerase assay (scintillation proximity assay)
Assay type: biochemical
Settings: percentage of inhibition at 25 μM concentration in CMV polymerase assay
Method in brief: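 Baculovirus/SF-9-expressed HCMV polymerase in 5.4 mM HEPES pH 7.5, 11.7 mM KCl, 4.5 mM MgCl2, 0.36 mg/ml BSA, 90 nM 3H-dTTP, with or without 2 mM CHAPS. Started with 6 nM biotinylated poly(dA)-oligo(dT), 30 min at 25 or 37 °C, EDTA-stopped, read by streptavidin-SPA counting; % inhibition at 25 μM.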

T1 sequence (P08546 whole entry): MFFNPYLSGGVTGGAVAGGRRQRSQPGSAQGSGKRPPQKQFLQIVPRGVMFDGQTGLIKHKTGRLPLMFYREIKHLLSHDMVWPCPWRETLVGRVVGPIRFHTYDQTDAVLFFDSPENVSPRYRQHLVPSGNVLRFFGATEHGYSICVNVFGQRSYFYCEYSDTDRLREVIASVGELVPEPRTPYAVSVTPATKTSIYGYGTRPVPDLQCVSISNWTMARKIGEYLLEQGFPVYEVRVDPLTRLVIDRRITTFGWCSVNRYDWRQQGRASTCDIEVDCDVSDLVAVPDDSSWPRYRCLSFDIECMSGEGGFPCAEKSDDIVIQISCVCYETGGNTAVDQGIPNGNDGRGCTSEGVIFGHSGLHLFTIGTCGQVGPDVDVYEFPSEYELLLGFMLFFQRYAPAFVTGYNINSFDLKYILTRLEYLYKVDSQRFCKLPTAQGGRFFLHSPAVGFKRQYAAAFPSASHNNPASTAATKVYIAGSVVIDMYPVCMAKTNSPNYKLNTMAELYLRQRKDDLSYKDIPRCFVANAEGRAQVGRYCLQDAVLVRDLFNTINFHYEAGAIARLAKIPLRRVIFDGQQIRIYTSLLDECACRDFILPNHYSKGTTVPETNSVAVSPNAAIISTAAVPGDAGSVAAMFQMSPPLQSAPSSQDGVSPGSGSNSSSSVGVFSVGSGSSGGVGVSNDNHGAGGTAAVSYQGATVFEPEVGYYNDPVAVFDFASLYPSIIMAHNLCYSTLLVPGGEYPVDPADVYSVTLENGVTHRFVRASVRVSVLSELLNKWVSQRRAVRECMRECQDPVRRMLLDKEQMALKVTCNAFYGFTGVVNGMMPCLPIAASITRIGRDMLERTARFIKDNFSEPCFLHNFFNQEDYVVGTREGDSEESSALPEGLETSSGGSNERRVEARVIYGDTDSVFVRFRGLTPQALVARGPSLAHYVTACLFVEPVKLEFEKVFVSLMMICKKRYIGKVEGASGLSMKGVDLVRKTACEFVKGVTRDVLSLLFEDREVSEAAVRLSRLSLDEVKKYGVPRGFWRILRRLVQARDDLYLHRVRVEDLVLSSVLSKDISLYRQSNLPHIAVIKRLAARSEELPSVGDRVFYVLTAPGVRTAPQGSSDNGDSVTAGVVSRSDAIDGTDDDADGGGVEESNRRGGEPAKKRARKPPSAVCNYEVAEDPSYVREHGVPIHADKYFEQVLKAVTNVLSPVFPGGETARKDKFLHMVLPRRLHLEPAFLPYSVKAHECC

Row | Compound | inhibition at 25 µM [%] | % Inhib [%]
1 | NS(=O)(=O)c1ccc(CCNc2nnc(NC(=O)c3c(Cl)cccc3Cl)s2)cc1 [compound 259, N-(5-{[4-(aminosulfonyl)phenethyl]amino}-1,3,4-thiadiazol-2-yl)-2,6-dichlorobenzamide] | 39.6 | 
2 | CCCCCCCC/C=C/CCCCCCCC(=O)Nc1nnc(NCc2cccs2)s1 [compound 42, (E)-N-{5-[(2-thienylmethyl)amino]-1,3,4-thiadiazol-2-yl}-9-octadecenamide] | 84.6 | 
3 | N#Cc1ccc(C(=O)Nc2nnc(NCc3ccc(Cl)c(Cl)c3)s2)cc1 [compound 140, 4-cyano-N-{5-[(3,4-dichlorobenzyl)amino]-1,3,4-thiadiazol-2-yl}benzamide] | 56.2 | 
4 | CCOc1ccc2ccccc2c1C(=O)Nc1nnc(NC2CC2)s1 [compound 227, N-[5-(cyclopropylamino)-1,3,4-thiadiazol-2-yl]-2-ethoxy-1-naphthamide] | 42.8 | 
5 | N#Cc1ccc(C(=O)Nc2nnc(NCCC(c3ccccc3)c3ccccc3)s2)cc1 [compound 46, 4-cyano-N-{5-[(3,3-diphenylpropyl)amino]-1,3,4-thiadiazol-2-yl}benzamide] | 82.3 | 
6 | N#Cc1ccc(C(=O)Nc2nnc(NCC(c3ccccc3)c3ccccc3)s2)cc1 [compound 83, 4-cyano-N-{5-[(2,2-diphenylethyl)amino]-1,3,4-thiadiazol-2-yl}benzamide] | 67.7 | 
7 | CCCCC(CC)CNc1nnc(NC(=O)c2ccc3c(c2)C(=O)OC3=O)s1 (stereo not shown) [compound 116, N-{5-[(2-ethylhexyl)amino]-1,3,4-thiadiazol-2-yl}-1,3-dioxo-1,3-dihydro-2-benzofuran-5-carboxamide] | 61.9 | 
8 | O=C(/C=C/c1ccccc1)Nc1nnc(NCCc2c[nH]c3ccccc23)s1 [compound 153, (E)-N-(5-{[2-(1H-indol-3-yl)ethyl]amino}-1,3,4-thiadiazol-2-yl)-3-phenyl-2-propenamide] | 53.7 | 
9 | CCCCCCCCCCCNc1nnc(NC(=O)c2ccc(I)cc2)s1 [compound 147, 4-iodo-N-[5-(undecylamino)-1,3,4-thiadiazol-2-yl]benzamide] | 54.7 | 
10 | O=C(Nc1nnc(NCc2cccs2)s1)c1cc2ccccc2s1 [compound 237, N-{5-[(2-thienylmethyl)amino]-1,3,4-thiadiazol-2-yl}-1-benzothiophene-2-carboxamide] | 41.5 | 
11 | CCCCCCCC/C=C/CCCCCCCC(=O)Nc1nnc(NCCNc2ccccc2)s1 [compound 179, (E)-N-{5-[(2-anilinoethyl)amino]-1,3,4-thiadiazol-2-yl}-9-octadecenamide] | 48.5 | 
12 | CCCCCCCC/C=C/CCCCCCCC(=O)Nc1nnc(NCc2ccc3c(c2)OCO3)s1 [compound 53, (E)-N-{5-[(1,3-benzodioxol-5-ylmethyl)amino]-1,3,4-thiadiazol-2-yl}-9-octadecenamide] | 77.9 | 
13 | O=C(Nc1nnc(NCCCCc2ccccc2)s1)c1ccc([N+](=O)[O-])o1 [compound 131, 5-nitro-N-{5-[(4-phenylbutyl)amino]-1,3,4-thiadiazol-2-yl}-2-furamide] | 58 | 
14 | CCCCCCCC/C=C/CCCCCCCC(=O)Nc1nnc(NCc2cccnc2)s1 [compound 72, (E)-N-{5-[(3-pyridinylmethyl)amino]-1,3,4-thiadiazol-2-yl}-9-octadecenamide] | 69.3 | 
15 | CCOc1ccc2ccccc2c1C(=O)Nc1nnc(NCCC(c2ccccc2)c2ccccc2)s1 [compound 61, N-{5-[(3,3-diphenylpropyl)amino]-1,3,4-thiadiazol-2-yl}-2-ethoxy-1-naphthamide] | 74.2 | 
16 | CCOc1ccc2ccccc2c1C(=O)Nc1nnc(NCCCNC2CCCCC2)s1 [compound 27, N-(5-{[3-(cyclohexylamino)propyl]amino}-1,3,4-thiadiazol-2-yl)-2-ethoxy-1-naphthamide] | 92.9 | 
17 | O=C(Nc1nnc(NCCCNC2CCCCC2)s1)c1ccc(S(=O)(=O)F)cc1 [compound 189, 4-{[(5-{[3-(cyclohexylamino)propyl]amino}-1,3,4-thiadiazol-2-yl)amino]carbonyl}benzenesulfonyl fluoride] |  | 47.1
18 | O=C(Nc1nnc(NCCSc2ccccc2)s1)c1ccc(F)cc1F [compound 205, 2,4-difluoro-N-(5-{[2-(phenylsulfanyl)ethyl]amino}-1,3,4-thiadiazol-2-yl)benzamide] | 44.9 | 
19 | O=C(Nc1nnc(NCc2cccnc2)s1)c1c(Cl)cccc1Cl [compound 156, 2,6-dichloro-N-{5-[(3-pyridinylmethyl)amino]-1,3,4-thiadiazol-2-yl}benzamide] | 53.2 | 
20 | O=C(/C=C/c1ccccc1)Nc1nnc(NCCCN2CCCC2=O)s1 [compound 130, (E)-N-(5-{[3-(2-oxo-1-pyrrolidinyl)propyl]amino}-1,3,4-thiadiazol-2-yl)-3-phenyl-2-propenamide] | 58.2 | 
21 | O=C(/C=C/c1ccccc1Cl)Nc1nnc(NCc2ccccn2)s1 [compound 161, (E)-3-(2-chlorophenyl)-N-{5-[(2-pyridinylmethyl)amino]-1,3,4-thiadiazol-2-yl}-2-propenamide] | 51.9 | 
22 | O=C(Nc1nnc(NCCCN2CCCC2=O)s1)c1ccc2c(c1)C(=O)OC2=O [compound 184, 1,3-dioxo-N-(5-{[3-(2-oxo-1-pyrrolidinyl)propyl]amino}-1,3,4-thiadiazol-2-yl)-1,3-dihydro-2-benzofuran-5-carboxamide] | 47.8 | 
23 | O=C(Nc1nnc(NCCCN2CCCC2=O)s1)c1cc2ccccc2s1 [compound 150, N-(5-{[3-(2-oxo-1-pyrrolidinyl)propyl]amino}-1,3,4-thiadiazol-2-yl)-1-benzothiophene-2-carboxamide] | 54.5 | 

Second part, led by results:

Row | inhibition at 25 µM [%] | Compound | % Inhib [%]
24 | 39.2 | O=C(Nc1nnc(NCCNc2ccccc2)s1)c1ccc([N+](=O)[O-])o1 [compound 264, N-{5-[(2-anilinoethyl)amino]-1,3,4-thiadiazol-2-yl}-5-nitro-2-furamide] | 
25 | 34.2 | O=C(Nc1nnc(NCCc2ccccc2)s1)c1ccc(Cl)cc1Cl [compound 308, 2,4-dichloro-N-[5-(phenethylamino)-1,3,4-thiadiazol-2-yl]benzamide] | 
26 | 30.2 | O=C(/C=C/c1ccccc1Cl)Nc1nnc(NCc2ccncc2)s1 [compound 352, (E)-3-(2-chlorophenyl)-N-[5-[(4-pyridinylmethyl)amino]-1,3,4-thiadiazol-2-yl}-2-propenamide] | 
27 | 25.9 | CC(C)c1cc(C(C)C)c(C(=O)Nc2nnc(NCCc3cccs3)s2)c(C(C)C)c1 [compound 396, 2,4,6-triisopropyl-N-(5-{[2-(2-thienyl)ethyl]amino}-1,3,4-thiadiazol-2-yl)benzamide] | 
28 | 33.5 | CC1(C)C2CC[C@@H](CNc3nnc(NC(=O)/C=C/c4ccccc4Cl)s3)C1C2 (stereo partly drawn) [compound 320, (E)-3-(2-chlorophenyl)-N-[5-({[(2R)-6,6-dimethylbicyclo[3.1.1]hept-2-yl]methyl}amino)-1,3,4-thiadiazol-2-yl]-2-propenamide] | 
29 | 22.9 | O=C(Nc1nnc(NCC2CCCCC2)s1)c1ccc(F)cc1F [compound 433, N-{5-[(cyclohexylmethyl)amino]-1,3,4-thiadiazol-2-yl}-2,4-difluorobenzamide] | 
30 | 27.9 | O=C(Nc1nnc(NCCC(c2ccccc2)c2ccccc2)s1)c1ccc(C(F)(F)F)cc1 [compound 376, N-{5-[(3,3-diphenylpropyl)amino]-1,3,4-thiadiazol-2-yl}-4-(trifluoromethyl)benzamide] | 
31 | 23.4 | O=C(Nc1nnc(NCCCN2CCCC2=O)s1)c1ccc(F)cc1F [compound 427, 2,4-difluoro-N-(5-{[3-(2-oxo-1-pyrrolidinyl)propyl]amino}-1,3,4-thiadiazol-2-yl)benzamide] | 
32 | 28.8 | O=C(Nc1nnc(NCc2cccc3ccccc23)s1)c1ccc(F)cc1F [compound 363, 2,4-difluoro-N-{5-[(1-naphthylmethyl)amino]-1,3,4-thiadiazol-2-yl}benzamide] | 
33 | 27.2 | O=C(Nc1nnc(NCC2CCCCC2)s1)c1ccc(Cl)c(Cl)c1 [compound 384, 3,4-dichloro-N-{5-[(cyclohexylmethyl)amino]-1,3,4-thiadiazol-2-yl}benzamide] | 
34 | 34.5 | O=C(Nc1nnc(NCc2ccc3c(c2)OCO3)s1)c1ccc(F)cc1F [compound 305, N-{5-[(1,3-benzodioxol-5-ylmethyl)amino]-1,3,4-thiadiazol-2-yl}-2,4-difluorobenzamide] | 
35 | 33.9 | CCCCCCCC/C=C/CCCCCCCC(=O)Nc1nnc(NCc2ccc(Cl)c(Cl)c2)s1 [compound 313, (E)-N-{5-[(3,4-dichlorobenzyl)amino]-1,3,4-thiadiazol-2-yl}-9-octadecenamide] | 
36 | 30.6 | O=C(Nc1nnc(NC2CCCc3ccccc32)s1)c1cccc([N+](=O)[O-])c1 (stereo not shown) [compound 347, 3-nitro-N-[5-(1,2,3,4-tetrahydro-1-naphthalenylamino)-1,3,4-thiadiazol-2-yl]benzamide] | 
37 | 22.7 | O=C(Nc1nnc(NCCc2ccccc2)s1)c1cc(F)cc(F)c1 [compound 437, 3,5-difluoro-N-[5-(phenethylamino)-1,3,4-thiadiazol-2-yl]benzamide] | 
38 | 31.6 | O=C(Nc1nnc(NCCc2cccs2)s1)c1cccc([N+](=O)[O-])c1 [compound 337, 3-nitro-N-(5-{[2-(2-thienyl)ethyl]amino}-1,3,4-thiadiazol-2-yl)benzamide] | 
39 | 33.9 | CC1(C)C2CC[C@@H](CNc3nnc(NC(=O)CCCCCl)s3)C1C2 (stereo partly drawn) [compound 312, 5-chloro-N-[5-({[(2R)-6,6-dimethylbicyclo[3.1.1]hept-2-yl]methyl}amino)-1,3,4-thiadiazol-2-yl]pentanamide] | 
40 | 27.9 | CCCCCCCCCCCNc1nnc(NC(=O)c2ccc(Cl)c(Cl)c2)s1 [compound 375, 3,4-dichloro-N-[5-(undecylamino)-1,3,4-thiadiazol-2-yl]benzamide] | 
